In patent publication US5599548A, “Skin care compositions containing fatty acid amides and retinol or retinyl ester” (priority 1995, dated 1997):
Where two headings read alike, the source gives them in different places. Blank lines part the entries; values can stand above or below the compound they belong to.

Tests used:
Human keratinocytes = assay: 3H-Thymidine incorporation (keratinocyte proliferation); assay type: cell-based; settings: for activity at 1 µM: Table 4C, retinol 2.5 × 10^-8 M, palmitoyl-MEA 10^-6 M; for activity at 1 µM / activity at 0.001 µM: RA; for effect on keratinocyte proliferation, in words: concentrations as in the respective Example; for activity at 0.001 µM: Table 4D, ROH 2.5 × 10^-8 M, linoleoyl-MEA 10^-9 M
Description: (§1) Human keratinocytes, isolated from neonatal foreskin by trypsin treatment were grown in Dulbecco Modification Eagle (DME) Hams F12 (1:1) medium/10% fetal calf serum in the presence of irradiated 3T3 mouse fibroblasts for establishing dividing keratinocyte colonies. Cells were grown under the above condition until their second passage and kept frozen for future use. […] On day 7, when the cells were 80-90% confluent, they were trypsinized and plated in the serum-free medium for the various experiments.
The incorporation of […] by cultured keratinocytes was used as an assay of keratinocyte proliferation. Thymidine is one of four deoxynucleosides which are the monomeric units of DNA, the universal library of genetic information in the animal kingdom. Prior to cell division of a somatic cell such as a keratinocyte, the complete genome of the cell undergoing cell division is replicated. This involves large scale DNA synthesis by the cell and enables both daughter cells to receive identical copies of the genetic material. When ^3 H-thymidine is included in the culture media of keratinocytes which are synthesizing DNA in preparation for cell division then the labelled nucleoside is incorporated into the newly synthesized DNA. The extent of incorporation of ^3 H-thymidine into a population of cells is proportional to the rate of DNA synthesis by this population of cells and therefore an indication of their cellular proliferation.
Keratinocytes (that were cultured as described above) were plated in 24 well plates at a density of 40,000 cells per well in 1 ml media. After incubation for four days or until the cells were 60-70% confluent, the media was changed. Test compounds were added (in triplicate) to the wells 24 hours after the media change, and four hours later 1μCi^3 H-Thymidine in 50 μl media was added per well. Cells were incubated for a further 24 hours. Media was removed from the cells, 10% ice cold trichloroacetic acid (TCA) added and plates were incubated on ice for 30 minutes. Cells were washed five times with 5% TCA and allowed to dissolve in 500 μl 0.1M NaOH for at least one hour (usually overnight). The preparations were neutralized with 0.1M HCl; 50 μl of the cell preparation was used to determine total protein content. Disintegrations per minute (DPM) from ^3 H labelling of DNA was determined by liquid scintillation counting of […] of the cell preparation. Thymidine incorporation results were expressed as DPM/μg protein.

[1] = tested on: TGase I (keratinocyte transglutaminase level); assay: Transglutaminase (TGase I) ELISA assay (keratinocyte differentiation); assay type: cell-based, human; settings: for activity at 0.1 µM / mean TGase level ± s.d: 72 h, ROH 2.5 × 10^-7 M; for effect on keratinocyte TG1 levels / differentiation, in words: concentrations as in the respective Example
Description: as §1
During the process of terminal differentiation in the epidermis, a 15 nm thick layer of protein, known as the cornified envelope (CE) is formed on the inner surface of the cell periphery. The CE is composed of numerous distinct proteins which have been cross-linked together by the formation of N^ε -(γ-glutamyl) lysine isodipeptide bonds catalyzed by the action of at least two different transglutaminases (TGases) expressed in the epidermis. TGase I is expressed in abundance in the differentiated layers of the epidermis, especially the granular layer, but is absent in the undifferentiated basal epidermis. Thus TGase I is a useful marker of epidermal keratinocyte differentiation with high TGase I levels indicating a more differentiated state. An ELISA based TGase I assay, using a TGase I antibody, was used to assess the state of differentiation of the cultured keratinocytes in the examples that follow.
Keratinocytes (cultured as described above) were plated in 96 well plates at a density of 3,000 cells per well in 200 μl media. After incubation for four days the media was changed to media containing test compounds (six replicates per test). The cells were cultured for a further 72 hours after which time the media was aspirated and the plates stored at -70° C. Plates were removed from the freezer, and the cells washed with PBS. 100 μl sterile water was added and the cells were freeze fractured by freezing at -70° C. then thawing. The cells were incubated for one hour at room temperature (R/T) with PBS/3% BSA (wash buffer, bovine serum albumin), then rinsed with a fresh aliquot of wash buffer. Cells were incubated with 50 μl of primary antibodies monoclonal anti-human transglutaminase (IgG) obtained from Amersham (mouse) diluted 1:300 in wash buffer for one hour, 37° C. then rinsed two times with wash buffer. Cells were then incubated with 50 μl of secondary antibody (Feb fragment, peroxidase conjugated anti-mouse IgG obtaining from Amersham) diluted 1:200 in wash buffer for one hour at 37° C., then rinsed two times with wash buffer. Cells were incubated with substrate solution (4 mg o-phenylene diamine and 3.3 μl 30% H2 O2 in 10 ml 0.1M citrate buffer pH 5.0) for five minutes, R/T, in darkness (under aluminum foil). The reaction was stopped by the addition of 50 μl 4N H2 SO4. The absorbance of samples was read at 492 nm in the plate reader. Out of the six replicates, four were treated with both antibodies, two were treated only with the secondary antibody (i.e., to determine background binding of enzyme conjugated Ab). TGase levels were determined by subtracting background from the readings from each treatment and determining mean ±s.d. for the replicates exposed to both Ab.

Compound: CCCCCCCCCCCCCCCC(=O)NCCO [palmitoyl-MEA, palmitoyl-monoethanolamide]
activity at 1 µM (Human keratinocytes; Homo sapiens, Keratinocyte, 24 h, alone or combined, n = 3, read-out: thymidine incorporation, % control): 97% | activity at 1 µM (Human keratinocytes; Homo sapiens, Keratinocyte, alone or combined, control = 1.000, n = 3, read-out: mean Thymidine incorp./μg protein ± s.d): 97.4 ± 8% | effect on keratinocyte proliferation, in words (Human keratinocytes): Neither 10^-8 M palmitoyl-MEA nor 2.5×10^-8 M retinol had an effect on keratinocyte proliferation

Compound: CCCCC/C=C\C/C=C\CCCCCCCC(=O)NCCO [linoleoyl-MEA, linoleoyl-monoethanolamide]
activity at 0.001 µM (Human keratinocytes; Homo sapiens, Keratinocyte, 24 h, alone or combined, 24 h, n = 3, read-out: thymidine incorporation, % control): 67% | activity at 0.001 µM (Human keratinocytes; Homo sapiens, Keratinocyte, 24 h, alone or combined, 24 h, normalized to ethanol control, n = 3, read-out: mean Thymidine incorp./μg protein ± s.d): 67 ± 18% | effect on keratinocyte proliferation, in words (Human keratinocytes): inhibitory effect on keratinocyte proliferation

effect on keratinocyte TG1 levels / differentiation, in words [1]: no effect on keratinocyte TG1 levels
Compound: CCCCC(=O)N(CCO)CCO [Pentanoyl-DEA (C5-DEA)]
activity at 0.1 µM ([1]; Homo sapiens, Keratinocyte, Table 6C, RA, pentanoyl-DEA 10^-7 M, alone or combined, n = 3, read-out: TGase (TG1) level, % control): 99% | mean TGase level ± s.d ([1]; Table 6C (Effect on Keratinocyte TGase), RA, pentanoyl-DEA 10^-7 M, alone or combined, n = 3): 0.425 ± 0.079

Compound: CCCCC/C=C\C/C=C\CCCCCCCC(=O)OC [Methyl linoleate, methyl linoleate]
activity at 0.01 µM ([1]; Homo sapiens, Keratinocyte, Table 5B, RA, retinol 2.5 × 10^-8 M, methyl linoleate 10^-8 M, alone or combined, n = 3, read-out: TGase (TG1) level, % control): 67% | mean TGase ± s.d ([1]; Table 5B, RA, retinol 2.5 × 10^-8 M, methyl linoleate 10^-8 M, alone or combined, n = 3): 0.193 ± 0.033 | effect on keratinocyte TG1 levels / differentiation, in words [1]: repressed TG1 to the same extent as 2.5×10^-8 M retinol

Compound: CCCCCCCCCCCCCCCC(=O)OC/C=C(C)/C=C/C=C(C)/C=C/C1=C(C)CCCC1(C)C [RP, retinyl palmitate]
activity at 0.25 µM ([1]; Homo sapiens, Keratinocyte, Table 3B, RA, RP 2.5 × 10^-7 M, linoleoyl-DEA 10^-6 M, alone or combined, n = 3, read-out: TGase (TG1) level, % control): 82% | activity at 2.5 µM ([1]; Homo sapiens, Keratinocyte, Table 8A, 2.5 × 10^-6 M, n = 3, read-out: TGase, % control): 95% | activity at 0.25 µM ([1]; Homo sapiens, Keratinocyte, Table 8A, 2.5 × 10^-7 M, n = 3, read-out: TGase, % control): 82% | activity at 0.025 µM ([1]; Homo sapiens, Keratinocyte, Table 8A, 2.5 × 10^-8 M, n = 3, read-out: TGase, % control): 82% | activity at 0.0025 µM ([1]; Homo sapiens, Keratinocyte, Table 8A, 2.5 × 10^-9 M, n = 3, read-out: TGase, % control): 76% | activity at 2.5 µM ([1]; Homo sapiens, Keratinocyte, Table 8B, 2.5 × 10^-6 M, n = 3, read-out: TGase, % control): 52% | activity at 0.00025 µM ([1]; Homo sapiens, Keratinocyte, Table 8B, 2.5 × 10^-10 M, n = 3, read-out: TGase, % control): 108% | mean TGase ± s.d ([1]; Table 3B, RA, RP 2.5 × 10^-7 M, linoleoyl-DEA 10^-6 M, alone or combined, n = 3): 0.177 ± 0.026 | mean TGase ± s.d ([1]; Table 8A, 2.5 × 10^-6 M, n = 3): 0.206 ± 0.034 | mean TGase ± s.d ([1]; Table 8A, 2.5 × 10^-7 M, n = 3): 0.177 ± 0.026 | mean TGase ± s.d ([1]; Table 8A, 2.5 × 10^-8 M, n = 3): 0.177 ± 0.054 | mean TGase ± s.d ([1]; Table 8A, 2.5 × 10^-9 M, n = 3): 0.165 ± 0.030 | mean TGase ± s.d ([1]; Table 8B, 2.5 × 10^-6 M, n = 3): 0.063 ± 0.019 | mean TGase ± s.d ([1]; Table 8B, 2.5 × 10^-10 M, n = 3): 0.132 ± 0.038 | activity at 0.25 µM (Human keratinocytes; Homo sapiens, Keratinocyte, 24 h, Table 3A, RA 2.5 × 10^-9 M, RP 2.5 × 10^-7 M, linoleoyl-DEA 10^-8 M, alone or combined, n = 3, read-out: thymidine incorporation, % control): 111% | mean Thymidine incorp./μg protein ± s.d (Human keratinocytes; Table 3A, RA 2.5 × 10^-9 M, RP 2.5 × 10^-7 M, linoleoyl-DEA 10^-8 M, alone or combined, n = 3): 1884 ± 64 DPM/μg protein | effect on keratinocyte proliferation, in words (Human keratinocytes): increased keratinocyte thymidine incorporation over the control

Compound: NC=O [Formamide (C1), formamide]
activity at 0.1 µM ([1]; Homo sapiens, Keratinocyte, Table 6A, RA, formamide 10^-7 M, alone or combined, n = 3, read-out: TGase (TG1) level, % control): 85% | mean TGase level ± s.d ([1]; Table 6A (Effect on Keratinocyte TGase), RA, formamide 10^-7 M, alone or combined, n = 3): 0.413 ± 0.069 | effect on keratinocyte TG1 levels / differentiation, in words [1]: small inhibitory effect on keratinocyte TG1 levels

effect on keratinocyte TG1 levels / differentiation, in words [1]: appeared to stimulate TG1
Compound: CCCCC/C=C\C/C=C\CCCCCCCC(=O)O [Linoleic acid (LA), Linoleic acid]
activity at 1 µM ([1]; Homo sapiens, Keratinocyte, Table 5A, RA, retinol 2.5 × 10^-7 M, linoleic acid 10^-6 M, alone or combined, n = 3, read-out: TGase (TG1) level, % control): > 100% | mean TGase ± s.d ([1]; Table 5A, RA, retinol 2.5 × 10^-7 M, linoleic acid 10^-6 M, alone or combined, n = 3): 0.161 ± 0.061

effect on keratinocyte TG1 levels / differentiation, in words [1]: no effect on keratinocyte TG1 levels
Compound: CC(N)=O [Acetamide (C2), acetamide]
activity at 0.1 µM ([1]; Homo sapiens, Keratinocyte, Table 6B, RA, acetamide 10^-7 M, alone or combined, n = 3, read-out: TGase (TG1) level, % control): 98% | mean TGase level ± s.d ([1]; Table 6B (Effect on Keratinocyte TGase), RA, acetamide 10^-7 M, alone or combined, n = 3): 0.480 ± 0.042
